Data on nine molecules can be found in patent US5668161A, “Substituted thiazoles for the treatment of inflammation” (G.D. Searle & Co., priority 1996, dated 1997).

The structures appear in SMILES notation.

In one assay the test system is COX II enzyme. The note with it: E. Meade et al; Futaki et al; cited from earlier work.
For a further assay, the target named is T1, murine COX-II (Mus musculus, UniProt Q05769).
T1 sequence (Q05769 18-604): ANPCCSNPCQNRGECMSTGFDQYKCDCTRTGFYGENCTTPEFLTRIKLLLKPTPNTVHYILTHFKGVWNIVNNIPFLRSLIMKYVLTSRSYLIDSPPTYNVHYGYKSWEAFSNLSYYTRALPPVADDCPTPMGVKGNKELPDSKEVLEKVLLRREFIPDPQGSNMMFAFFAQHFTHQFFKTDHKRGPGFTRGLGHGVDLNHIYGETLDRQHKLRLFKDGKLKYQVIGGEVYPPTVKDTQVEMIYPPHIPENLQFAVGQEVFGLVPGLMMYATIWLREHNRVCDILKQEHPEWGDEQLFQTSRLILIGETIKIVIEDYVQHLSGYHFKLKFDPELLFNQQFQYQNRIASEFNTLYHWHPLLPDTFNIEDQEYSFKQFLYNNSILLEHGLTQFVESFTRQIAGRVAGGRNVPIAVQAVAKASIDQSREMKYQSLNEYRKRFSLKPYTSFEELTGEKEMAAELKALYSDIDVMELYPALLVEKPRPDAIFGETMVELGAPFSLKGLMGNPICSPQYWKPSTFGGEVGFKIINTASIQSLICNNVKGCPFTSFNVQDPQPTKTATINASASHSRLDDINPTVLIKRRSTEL
Description: biochemical.

The target of a further assay is T2, murine COX-I (Mus musculus, UniProt P22437).
T2 sequence (P22437 27-602): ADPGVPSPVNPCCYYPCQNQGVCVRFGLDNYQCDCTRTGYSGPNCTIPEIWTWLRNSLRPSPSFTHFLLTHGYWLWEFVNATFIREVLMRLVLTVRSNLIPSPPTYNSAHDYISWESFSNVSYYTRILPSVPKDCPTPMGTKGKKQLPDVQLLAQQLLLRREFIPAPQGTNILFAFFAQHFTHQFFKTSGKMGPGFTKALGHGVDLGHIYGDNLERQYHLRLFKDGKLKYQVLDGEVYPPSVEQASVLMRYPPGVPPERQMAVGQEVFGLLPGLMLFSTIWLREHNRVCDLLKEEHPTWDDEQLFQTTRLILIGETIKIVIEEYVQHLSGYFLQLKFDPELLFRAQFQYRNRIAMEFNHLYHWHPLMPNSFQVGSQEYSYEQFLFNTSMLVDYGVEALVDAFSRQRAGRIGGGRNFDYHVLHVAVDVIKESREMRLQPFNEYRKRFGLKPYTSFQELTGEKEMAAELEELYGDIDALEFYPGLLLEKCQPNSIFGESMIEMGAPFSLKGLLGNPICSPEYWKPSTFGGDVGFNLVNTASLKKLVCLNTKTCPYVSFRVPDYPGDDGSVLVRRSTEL
Description: COX I activity in vitro, murine (PGE2 by ELISA). (In general: An ELISA detects its analyte on a solid surface through an enzyme-linked reagent.)

A further assay deals with T3, human COX-II (Homo sapiens, UniProt P35354).
T3 sequence (P35354 18-604): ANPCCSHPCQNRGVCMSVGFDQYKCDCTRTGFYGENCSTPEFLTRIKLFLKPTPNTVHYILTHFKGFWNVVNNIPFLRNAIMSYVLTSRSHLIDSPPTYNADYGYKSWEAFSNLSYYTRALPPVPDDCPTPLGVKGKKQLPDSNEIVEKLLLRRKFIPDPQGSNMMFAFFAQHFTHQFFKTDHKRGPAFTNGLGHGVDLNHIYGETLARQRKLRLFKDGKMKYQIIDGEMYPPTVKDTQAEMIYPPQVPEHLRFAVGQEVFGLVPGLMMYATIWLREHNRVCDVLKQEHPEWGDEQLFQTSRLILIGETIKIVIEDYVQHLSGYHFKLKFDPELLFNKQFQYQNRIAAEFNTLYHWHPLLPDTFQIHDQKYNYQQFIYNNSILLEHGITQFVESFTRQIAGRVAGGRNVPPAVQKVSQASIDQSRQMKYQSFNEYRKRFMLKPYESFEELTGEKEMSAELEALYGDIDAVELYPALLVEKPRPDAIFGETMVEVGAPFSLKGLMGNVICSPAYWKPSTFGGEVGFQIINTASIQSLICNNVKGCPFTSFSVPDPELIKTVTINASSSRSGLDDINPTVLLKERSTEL
Description: COX II activity in vitro, human (PGE2 by ELISA).

Another assay has as its system carrageenan foot edema. Description: Rat Carrageenan Foot Pad Edema Test. The format is in vivo, rat (Male Sprague-Dawley). The following applies: oral, 3 hours after carrageenan, read-out: RAT PAW EDEMA % Inhibition; for inhibition at 20 mg/kg: @ 20 mg/kg body weight. On the procedure:
Male Sprague-Dawley rats were selected in each group so that the average body weight was as close as possible. Rats were fasted with free access to water for over sixteen hours prior to the test. […] One hour later a subplantar injection of 0.1 mL of 1% solution of carrageenan/sterile 0.9% saline was administered and the volume of the injected foot was measured with a displacement plethysmometer connected to a pressure transducer with a digital indicator. Three hours after the injection of the carrageenan, the volume of the foot was again measured. […] Rat Carrageenan-induced Analgesia Test
For orientation: The carrageenan paw model is a standard test of acute inflammation.

For the next assay, the target named is human COX-I (Homo sapiens, UniProt P23219). Description: COX I activity in vitro, human (PGE2 by ELISA).
Chain of human COX-I (P23219 24-599): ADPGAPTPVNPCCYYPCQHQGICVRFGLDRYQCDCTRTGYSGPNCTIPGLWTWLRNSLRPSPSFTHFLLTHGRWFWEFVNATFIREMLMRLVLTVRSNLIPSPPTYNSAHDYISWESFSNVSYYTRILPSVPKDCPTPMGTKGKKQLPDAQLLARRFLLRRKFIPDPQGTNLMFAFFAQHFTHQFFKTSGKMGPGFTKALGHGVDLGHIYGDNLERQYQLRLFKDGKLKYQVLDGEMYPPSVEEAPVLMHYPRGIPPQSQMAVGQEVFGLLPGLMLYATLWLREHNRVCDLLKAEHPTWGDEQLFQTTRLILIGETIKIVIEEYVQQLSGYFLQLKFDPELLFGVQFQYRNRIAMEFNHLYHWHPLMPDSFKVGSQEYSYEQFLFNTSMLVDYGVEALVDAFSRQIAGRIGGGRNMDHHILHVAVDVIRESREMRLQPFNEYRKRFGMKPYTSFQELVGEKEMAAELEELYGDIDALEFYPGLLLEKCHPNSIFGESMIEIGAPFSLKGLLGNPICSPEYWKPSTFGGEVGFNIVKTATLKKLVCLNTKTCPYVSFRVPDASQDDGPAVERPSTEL
In assay [1] the test system is carrageenan-induced hyperalgesic foot withdrawal. Description: Rat Carrageenan-induced Analgesia Test. The format is in vivo, rat (Male Sprague-Dawley). The following applies: for inhibition at 20 mg/kg: read-out: ANALGESIA % Inhibition, @ 20 mg/kg body weight, oral, 3 hours after carrageenan. On the procedure:
The carrageenan foot edema test was performed with materials, reagents and procedures essentially as described by Winter, et al., (Proc. Soc. Exp. Biol. Med., 111, 544 (1962)). Male Sprague-Dawley rats were selected in each group so that the average body weight was as close as possible. Rats were fasted with free access to water for over sixteen hours prior to the test. The rats were dosed orally (1 mL) with compounds suspended in vehicle containing 0.5% methylcellulose and 0.025% surfactant, or with vehicle alone. One hour later a subplantar injection of 0.1 mL of 1% solution of carrageenan/sterile 0.9% saline was administered and the volume of the injected foot was measured with a displacement plethysmometer connected to a pressure transducer with a digital indicator. Three hours after the injection of the carrageenan, the volume of the foot was again measured. The average foot swelling in a group of drug-treated animals was compared with that of a group of placebo-treated animals and the percentage inhibition of edema was determined (Otterness and Bliven, Laboratory Models for Testing NSAIDS, in Non-steroidal Anti-Inflammatory Drugs, (J. Lombardino, ed. 1985)). […] Rat Carrageenan-induced Analgesia Test
The analgesia test using rat carrageenan was performed with materials, reagents and procedures essentially as described by Hargreaves, et al., (Pain, 32, 77 (1988)). Male Sprague-Dawley rats were treated as previously described for the Carrageenan Foot Pad Edema test. Three hours after the injection of the carrageenan, the rats were placed in a special plexiglass container with a transparent floor having a high intensity lamp as a radiant heat source, positionable under the floor. After an initial twenty minute period, thermal stimulation was begun on either the injected foot or on the contralateral uninjected foot. […] The time until the rat withdraws its foot was then measured. The withdrawal latency in seconds was determined for the control and drug-treated groups, and percent inhibition of the hyperalgesic foot withdrawal determined.

On to `COc1ccc2cc(CC(=O)O)ccc2c1` [6-methoxy-2-napthylacetic acid], for which the “inhibition of the COX II enzyme” value with COX II enzyme is reported as “selectively inhibit the COX II enzyme”.

As a reminder, the IC50 is the concentration that gives 50% inhibition. The low end stands for greater potency in that assay, the high end for weaker potency in that assay. In the case of `CS(=O)(=O)c1ccc(-c2sc(-c3ccc(F)c(Cl)c3)nc2-c2ccc(F)cc2)cc1` [Example 12, 2-(3-Chloro-4-fluorophenyl)-4-(4-fluorophenyl)-5-(4-methylsulfonylphenyl)thiazole], the IC50 against murine COX-II was < 100 nM; against murine COX-I it was 1600 nM; on human COX-II, < 100 nM; on human COX-I, > 10000 nM. Also, the inhibition at 20 mg/kg with carrageenan foot edema was 53%.

Turning to `CS(=O)(=O)c1ccc(-c2sc(-c3ccccc3Cl)nc2-c2ccc(F)cc2)cc1` [Example 16, 2-(2-Chlorophenyl)-4-(4-fluorophenyl)-5-(4-methylsulfonylphenyl)thiazole], the inhibition at 20 mg/kg in assay [1] was 27%; with carrageenan foot edema, 50%. The IC50 against murine COX-II is < 100 nM; at murine COX-I, > 10000 nM; at human COX-II, < 100 nM.

Turning to `CS(=O)(=O)c1ccc(-c2sc(C(F)(F)F)nc2-c2ccc(F)cc2)cc1` [Example 23, 4-(4-Fluorophenyl)-5-(4-methylsulfonylphenyl)-2-trifluoromethylthiazole], the IC50 on murine COX-II was < 100 nM; against murine COX-I, 700 nM; at human COX-II, < 100 nM; against human COX-I, 1100 nM. The inhibition at 20 mg/kg in the assay on carrageenan foot edema worked out at 39.5%.

Take `CS(=O)(=O)c1ccc(-c2sc(NCc3ccccc3)nc2-c2ccc(F)cc2)cc1` [Example 29, 4-(4-Fluorophenyl)-5-(4-methylsulfonylphenyl)-2-benzylaminothiazole]: the inhibition at 20 mg/kg in assay [1] came out at 24%; with carrageenan foot edema, 42%. Moreover, the IC50 against murine COX-II was 100 nM; against murine COX-I it was 500 nM.

For the molecule `CS(=O)(=O)c1ccc(-c2sc(COc3cc(Cl)cc(Cl)c3)nc2-c2ccc(F)cc2)cc1` [Example 33, 2-[(3,5-Dichlorophenoxy)methyl)-4-(4-fluorophenyl)-5-[4-(methylsulfonyl)phenyl]thiazole], the inhibition at 30 mg/kg in assay [1] (read-out: ANALGESIA % Inhibition, a @ 30 mg/kg, oral, 3 hours after carrageenan) is 34%. Further, the values for the IC50 on human COX-II and on human COX-I were < 100 nM and > 100000 nM, respectively. In addition, the inhibition at 20 mg/kg in the assay with carrageenan foot edema was found to be 36%.

Turning to `CS(=O)(=O)c1ccc(-c2nc(C(F)(F)F)sc2-c2ccc(F)cc2)cc1` [Example 56, 5-(4-fluorophenyl)-4-(4-methylsulfonylphenyl)-2-trifluoromethylthiazole], the IC50 against murine COX-II was < 100 nM; against murine COX-I, > 100000 nM; against human COX-II, < 100 nM; on human COX-I, > 100000 nM. The inhibition at 10 mg/kg with carrageenan foot edema amounted to 20%.

For `CS(=O)(=O)c1ccc(-c2sc(-c3c(F)c(F)c(F)c(F)c3F)nc2-c2ccc(F)cc2)cc1` [Example 57], the IC50 against murine COX-II is > 100 nM; against murine COX-I, 4900 nM; at human COX-II, < 100 nM; against human COX-I, > 100000 nM. The inhibition at 10 mg/kg in the assay on carrageenan foot edema amounted to 2%.

For the molecule `CS(=O)(=O)Nc1ccc([N+](=O)[O-])cc1OC1CCCCC1` [N-(2-cyclohexyloxy-4-nitrophenyl)methanesulfonamide], the “inhibition of the COX II enzyme” value in the assay with COX II enzyme is “inhibits the COX II enzyme”.
